This passage reports Peptide exchange results from US20170189504A1, “NOVEL PEPTIDES AND COMBINATION OF PEPTIDES FOR USE IN IMMUNOTHERAPY AGAINST VARIOUS CANCERS” (immatics biotechnologies GmbH, priority 2015, published 2017).

One assay concerns HLA-A*24. In words: MHC binding assay, UV-ligand exchange with β2m ELISA, HLA-A*24 (Table 21). As to conditions: binding to HLA-A*24 ranged by peptide exchange yield (UV-ligand exchange, β2m ELISA). Details: species or system human. An excerpt:
(§1) Candidate peptides for T cell based therapies according to the present invention were further tested for their MHC binding capacity (affinity). The individual peptide-MHC complexes were produced by UV-ligand exchange, where a UV-sensitive peptide is cleaved upon UV-irradiation, and exchanged with the peptide of interest as analyzed. Only peptide candidates that can effectively bind and stabilize the peptide-receptive MHC molecules prevent dissociation of the MHC complexes. To determine the yield of the exchange reaction, an ELISA was performed based on the detection of the light chain ((β2m) of stabilized MHC complexes. The assay was performed as generally described in Rodenko et al. (Rodenko et al., 2006).
(§2) 96 well MAXISorp plates (NUNC) were coated over night with 2 ug/ml streptavidin in PBS at room temperature, washed 4× and blocked for 1 h at 37° C. in 2% BSA containing blocking buffer. Refolded HLA-A*02:01/MLA-001 monomers served as standards, covering the range of 15-500 ng/ml. Peptide-MHC monomers of the UV-exchange reaction were diluted 100 fold in blocking buffer. Samples were incubated for 1 h at 37° C., washed four times, incubated with 2 ug/ml HRP conjugated anti-β2m for 1 h at 37° C., washed again and detected with TMB solution that is stopped with […]. Absorption was measured at 450 nm. Candidate peptides that show a high exchange yield (preferably higher than 50%, most preferred higher than 75%) are generally preferred for a generation and production of antibodies or fragments thereof, and/or T cell receptors or fragments thereof, as they show sufficient avidity to the MHC molecules and prevent dissociation of the MHC complexes.
Background: In an ELISA, binding on a coated surface is turned into a signal by an enzyme label.
Regarding “288 (VYVSDIQEL; listed as Homo sapiens) [compound 288]”, the Peptide exchange result was “+++ (50%-75% = +++)”. “183 (VFTSTARAF; listed as Homo sapiens) [compound 183]”: the Peptide exchange entry is on record as “+++ (50%-75% = +++)”.

As for “170 (VYEDQVGKF; listed as Homo sapiens) [compound 170]”, the Peptide exchange result is recorded as “++ (20%-49% = ++)”. For the substance “275 (EYINQGDLHEF; listed as Homo sapiens) [compound 275]”, the Peptide exchange result is listed as “+++ (50%-75% = +++)”.

Regarding “227 (IFLDYEAGTLSF; listed as Homo sapiens) [compound 227]”, the Peptide exchange result was “++++ (≧75% = ++++)”. “209 (TYKDEGNDYF; listed as Homo sapiens) [compound 209]”: the Peptide exchange result is reported as “+++ (50%-75% = +++)”. Take “177 (VYPWLGALL; listed as Homo sapiens) [compound 177]”: the Peptide exchange result is given as “++++ (≧75% = ++++)”. As for “180 (IYDDSFIRPVTF; listed as Homo sapiens) [compound 180]”, the Peptide exchange entry is “+++ (50%-75% = +++)”. “185 (IYKVGAPTI; listed as Homo sapiens) [compound 185]”: the Peptide exchange entry was “+++ (50%-75% = +++)”. As for “270 (NYYEVHKELF; listed as Homo sapiens) [compound 270]”, the Peptide exchange entry was “+++ (50%-75% = +++)”. On the same count and under the same terms, for “284 (RYLNKAFHI; listed as Homo sapiens) [compound 284]” the value was “+++ (50%-75% = +++)”; for “187 (TYLRDQHFL; listed as Homo sapiens) [compound 187]”, “++++ (≧75% = ++++)”.

Take “210 (IYTMIYRNL; listed as Homo sapiens) [compound 210]”: the Peptide exchange result was “++++ (≧75% = ++++)”. “219 (EYPLVINTL; listed as Homo sapiens) [compound 219]”: the Peptide exchange result is “+++ (50%-75% = +++)”. Take “194 (EFGSLHLEFL; listed as Homo sapiens) [compound 194]”: the Peptide exchange result is reported as “+ (<20% = +)”. In the case of “186 (IFPQFLYQF; listed as Homo sapiens) [compound 186]”, the Peptide exchange result is reported as “++++ (≧75% = ++++)”.

For “191 (VFKASKITF; listed as Homo sapiens) [compound 191]”, the Peptide exchange result is reported as “+++ (50%-75% = +++)”. “190 (GFFIFNERF; listed as Homo sapiens) [compound 190]”: the Peptide exchange result is “+++ (50%-75% = +++)”. On to “193 (RFHPTPLLL; listed as Homo sapiens) [compound 193]”, for which the Peptide exchange result was “++++ (≧75% = ++++)”. Same read-out and setting: under “171 (LFIPSSKLLFL; listed as Homo sapiens) [compound 171]” stands “+++ (50%-75% = +++)”. For the substance “273 (TYIKPISKL; listed as Homo sapiens) [compound 273]”, the Peptide exchange entry is given as “+++ (50%-75% = +++)”. Turning to “224 (QYLENLEKL; listed as Homo sapiens) [compound 224]”, the Peptide exchange entry was “+++ (50%-75% = +++)”. With “184 (VFQNFPLLF; listed as Homo sapiens) [compound 184]”, the Peptide exchange entry is “++++ (≧75% = ++++)”. As for “221 (RYSTGLAGNLL; listed as Homo sapiens) [compound 221]”, the Peptide exchange result is given as “+++ (50%-75% = +++)”. Regarding “272 (QYLQDAYSF; listed as Homo sapiens) [compound 272]”, the Peptide exchange entry was “++++ (≧75% = ++++)”. As for “189 (WYVNGVNYF; listed as Homo sapiens) [compound 189]”, the Peptide exchange result is recorded as “++ (20%-49% = ++)”. For “271 (LYHDIFSRL; listed as Homo sapiens) [compound 271]”, the Peptide exchange entry is on record as “++++ (≧75% = ++++)”. On the same count and under the same terms, under “211 (YYLEVGKTLI; listed as Homo sapiens) [compound 211]” stands “++++ (≧75% = ++++)”. Same read-out and setting: under “274 (AYLHSHALI; listed as Homo sapiens) [compound 274]” stands “++++ (≧75% = ++++)”; under “289 (KYPVEWAKF; listed as Homo sapiens) [compound 289]”, “++++ (≧75% = ++++)”; under “217 (FFPPTRQMGLLF; listed as Homo sapiens) [compound 217]”, “++++ (≧75% = ++++)”.

For the substance “178 (IFIEVFSHF; listed as Homo sapiens) [compound 178]”, the Peptide exchange result is recorded as “+++ (50%-75% = +++)”. Take “182 (IYQLDTASI; listed as Homo sapiens) [compound 182]”: the Peptide exchange result is reported as “+++ (50%-75% = +++)”.

As to “208 (TYTQDFNKF; listed as Homo sapiens) [compound 208]”, the Peptide exchange entry is reported as “+++ (50%-75% = +++)”. On to “172 (TYTTVPRVAF; listed as Homo sapiens) [compound 172]”, for which the Peptide exchange result is “++++ (≧75% = ++++)”. Take “205 (VHIPEVYLI; listed as Homo sapiens) [compound 205]”: the Peptide exchange result is on record as “+++ (50%-75% = +++)”.

Consider “216 (QYSSVFKSL; listed as Homo sapiens) [compound 216]”, for which the Peptide exchange result is “++++ (≧75% = ++++)”. The same measure, in the same setting: under “181 (LYLDIINLF; listed as Homo sapiens) [compound 181]” stands “++++ (≧75% = ++++)”.

In the case of “201 (IYATEAHVF; listed as Homo sapiens) [compound 201]”, the Peptide exchange result is recorded as “+++ (50%-75% = +++)”. On the same count and under the same terms, for “203 (FYSRLLQKF; listed as Homo sapiens) [compound 203]” the value was “+++ (50%-75% = +++)”; for “279 (TYIESASEL; listed as Homo sapiens) [compound 279]”, “+++ (50%-75% = +++)”. As for “215 (YFDKVVTL; listed as Homo sapiens) [compound 215]”, the Peptide exchange entry is “++ (20%-49% = ++)”. The same measure, in the same setting: under “214 (LYLKLWNLI; listed as Homo sapiens) [compound 214]” stands “+++ (50%-75% = +++)”; under “228 (KYTSWYVAL; listed as Homo sapiens) [compound 228]”, “++++ (≧75% = ++++)”; under “276 (VYGFQWRHF; listed as Homo sapiens) [compound 276]”, “++++ (≧75% = ++++)”.

Turning to “287 (LYITEPKTI; listed as Homo sapiens) [compound 287]”, the Peptide exchange result was “+++ (50%-75% = +++)”. Consider “278 (RYISDQLFTNF; listed as Homo sapiens) [compound 278]”, for which the Peptide exchange result is listed as “++++ (≧75% = ++++)”.

As to “267 (KYMVYPQTF; listed as Homo sapiens) [compound 267]”, the Peptide exchange result is reported as “++++ (≧75% = ++++)”. “202 (VYWDSAGAAHF; listed as Homo sapiens) [compound 202]”: the Peptide exchange entry is “++++ (≧75% = ++++)”.

Another assay relates to HLA-A*02. In words: MHC binding assay, UV-ligand exchange with β2m ELISA, HLA-A*02 (Table 20). Details: species or system human. The following applies: binding to HLA-A*02 ranged by peptide exchange yield (UV-ligand exchange, β2m ELISA).
Source text: as §1, §2
Regarding “37 (ILAPFSVDL; listed as Homo sapiens) [compound 37]”, the Peptide exchange result is on record as “+++ (50%-75% = +++)”. On to “50 (ILFHGVFYA; listed as Homo sapiens) [compound 50]”, for which the Peptide exchange entry is given as “+++ (50%-75% = +++)”. Consider “59 (KLLDPQEFTL; listed as Homo sapiens) [compound 59]”, for which the Peptide exchange entry is on record as “+++ (50%-75% = +++)”. For the substance “9 (FLVDGSYSI; listed as Homo sapiens) [compound 9]”, the Peptide exchange entry is reported as “+++ (50%-75% = +++)”.

Take “89 (QLAPVFQRV; listed as Homo sapiens) [compound 89]”: the Peptide exchange result is recorded as “++ (20%-49% = ++)”. Same read-out and setting: for “254 (KLQGKLPEL; listed as Homo sapiens) [compound 254]” the value was “++ (20%-49% = ++)”; for “38 (FLGPRIIGL; listed as Homo sapiens) [compound 38]”, “+++ (50%-75% = +++)”; for “25 (TMDSVLVTV; listed as Homo sapiens) [compound 25]”, “+++ (50%-75% = +++)”. Consider “109 (SLDPSVTHL; listed as Homo sapiens) [compound 109]”, for which the Peptide exchange result is listed as “++ (20%-49% = ++)”. On to “76 (AVGPVHNSV; listed as Homo sapiens) [compound 76]”, for which the Peptide exchange entry is “++ (20%-49% = ++)”. With “65 (SVVPDVRSV; listed as Homo sapiens) [compound 65]”, the Peptide exchange entry is “++ (20%-49% = ++)”. Still for that read-out and setting: under “64 (SLFPDSLIV; listed as Homo sapiens) [compound 64]” stands “++ (20%-49% = ++)”; under “98 (RLFPDFFTRVAL; listed as Homo sapiens) [compound 98]”, “++ (20%-49% = ++)”. Same read-out and setting: under “114 (QLIQTLHAV; listed as Homo sapiens) [compound 114]” stands “+++ (50%-75% = +++)”; under “67 (TLLQRLTEV; listed as Homo sapiens) [compound 67]”, “+++ (50%-75% = +++)”; under “128 (TQSPATLSV; listed as Homo sapiens) [compound 128]”, “++ (20%-49% = ++)”.
